The test system of data set [1] is Setaria viridis. Kind of data set: Upland soil treatment (Test Example 2). The class given is in vivo. Conditions: soil surface treatment next day after sowing, wettable powder, 1 kg active ingredient per hectare, evaluated 21st day after application. A digest of the protocol: (§1)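 Scored 21 days post-application on an index scale where higher values mean greater herbicidal effect on weeds and lower values mean greater crop safety. Treatment was a water-diluted wettable powder sprayed evenly onto the soil surface at 1 kg active ingredient per hectare, one day after seeding.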

Data set [2] deals with Stellaria media. The data set can be described thus: Upland soil treatment (Test Example 2). The format is in vivo. Conditions: soil surface treatment next day after sowing, wettable powder, 1 kg active ingredient per hectare, evaluated 21st day after application. A digest of the protocol:
as §1

For data set [3], the system named is Chenopodium album. The data set can be described thus: Upland soil treatment (Test Example 2). The format is in vivo. Conditions: soil surface treatment next day after sowing, wettable powder, 1 kg active ingredient per hectare, evaluated 21st day after application. A digest of the protocol:
as §1

For data set [4], the system named is Digitaria adscendens. The data set can be described thus: Upland soil treatment (Test Example 2). The format is in vivo. Conditions: soil surface treatment next day after sowing, wettable powder, 1 kg active ingredient per hectare, evaluated 21st day after application. The method, boiled down: as §1
The test system of another data set is Monochoria vaginalis. The data set can be described thus: Paddy field treatment (Test Example 3). The following applies: paddy pot, submerged 4 cm, dropped on water surface 10th day after transplantation, 1 kg active ingredient per hectare, evaluated 21st day. The class given is in vivo. A digest of the protocol:
(§2)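 Paddy soil in pots was puddled and flooded to 4 cm, weeds were sown, and two-leaf Koshihikari rice was transplanted at 3 cm depth. Ten days after transplanting, wettable powder was applied onto the water surface at 1 kg active ingredient per hectare. Herbicidal effect was index-scored 21 days later.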

The next data set has as its system Ammannia multiflora. Kind of data set: Paddy field treatment (Test Example 3). The format is in vivo. The following applies: paddy pot, submerged 4 cm, dropped on water surface 10th day after transplantation, 1 kg active ingredient per hectare, evaluated 21st day. The method, boiled down:
as §2

For a further data set, the system named is Scirpus juncoides. Kind of data set: Paddy field treatment (Test Example 3). The class given is in vivo. Conditions: paddy pot, submerged 4 cm, dropped on water surface 10th day after transplantation, 1 kg active ingredient per hectare, evaluated 21st day. The method, boiled down: as §2
For data set [5], the system named is rice (Oryza sative, variety: Koshihikari). The data set can be described thus: Paddy field treatment (Test Example 3), crop. The class given is in vivo, Oryza sativa. The following applies: transplanted rice two-leaf period, water surface treatment 10th day after transplantation, 1 kg active ingredient per hectare, evaluated 21st day, lower index = higher safety. A digest of the protocol:
as §2

For data set [6], the system named is Setaria viridis. The data set can be described thus: Upland field foliage treatment (Test Example 1). The format is in vivo. Conditions: foliage treatment 14th day after sowing, wettable powder, 1 kg active ingredient per hectare, evaluated 21st day after application. A digest of the protocol: (§3)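 Foliar spray, 1 kg a.i./ha, wettable powder in water, applied 14 d post-sowing; seeds covered by ~1 cm upland soil. Index scoring at 21 d. Higher index = stronger weed control; for crops, lower index = greater safety.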

Data set [7] has as its system Stellaria media. Kind of data set: Upland field foliage treatment (Test Example 1). The format is in vivo. The following applies: foliage treatment 14th day after sowing, wettable powder, 1 kg active ingredient per hectare, evaluated 21st day after application. The method, boiled down: as §3
Data set [8] deals with Chenopodium album. The data set can be described thus: Upland field foliage treatment (Test Example 1). The format is in vivo. The following applies: foliage treatment 14th day after sowing, wettable powder, 1 kg active ingredient per hectare, evaluated 21st day after application. A digest of the protocol: as §3
The subject of data set [9] is Digitaria adscendens. Kind of data set: Upland field foliage treatment (Test Example 1). The format is in vivo. The following applies: foliage treatment 14th day after sowing, wettable powder, 1 kg active ingredient per hectare, evaluated 21st day after application. The method, boiled down:
as §3

Data set [10] deals with soybean (Glycine max). Kind of data set: Upland field foliage treatment (Test Example 1), crop. Conditions: foliage treatment 14th day after sowing, 1 kg active ingredient per hectare, evaluated 21st day, lower index = higher safety. The class given is in vivo. A digest of the protocol: as §3
The test system of data set [11] is wheat (Triticum aestivum). The description is as above. The class given is in vivo. Conditions: foliage treatment 14th day after sowing, 1 kg active ingredient per hectare, evaluated 21st day, lower index = higher safety. A digest of the protocol: as §3
The subject of the next data set is Echinochloa spp. Kind of data set: Paddy field treatment (Test Example 3). The format is in vivo, Echinochloa crusgalli. Conditions: paddy pot, submerged 4 cm, dropped on water surface 10th day after transplantation, 1 kg active ingredient per hectare, evaluated 21st day. A digest of the protocol:
as §2

Data set [12] deals with soybean (Glycine max). The data set can be described thus: Upland soil treatment (Test Example 2), crop. The class given is in vivo. Conditions: soil surface treatment next day after sowing, 1 kg active ingredient per hectare, evaluated 21st day, lower index = higher safety. The method, boiled down:
as §1

Data set [13] deals with wheat (Triticum aestivum). Kind of data set: Upland soil treatment (Test Example 2), crop. The class given is in vivo. Conditions: soil surface treatment next day after sowing, 1 kg active ingredient per hectare, evaluated 21st day, lower index = higher safety. A digest of the protocol:
as §1

Turning to `COC=C(Cn1nc(-c2ccccc2)c(C)c1Cl)C(=O)OC` [Compound 45], the “Herbicidal activity Setaria viridis” value with Setaria viridis [1] is 4 (herbicidal effect of not less than 70% by weight and less than 90% by weight); in the data set on Setaria viridis [6] it was 4 (herbicidal effect of not less than 70% by weight and less than 90% by weight). In addition, the “Herbicidal activity Stellaria media” value in the data set on Stellaria media [2] was 4 (herbicidal effect of not less than 70% by weight and less than 90% by weight); in the data set on Stellaria media [7], 5 (herbicidal effect of not less than 90% by weight). In addition, the “Herbicidal activity Chenopodium album” value with Chenopodium album [3] was 4 (herbicidal effect of not less than 70% by weight and less than 90% by weight); with Chenopodium album [8], 5 (herbicidal effect of not less than 90% by weight). Also, the “Herbicidal activity Digitaria adscendens” value with Digitaria adscendens [4] was 4 (herbicidal effect of not less than 70% by weight and less than 90% by weight); in the data set on Digitaria adscendens [9], 4 (herbicidal effect of not less than 70% by weight and less than 90% by weight). The “Herbicidal activity Monochoria vaginalis” value in the data set with Monochoria vaginalis is given as 5 (herbicidal effect of not less than 90% by weight). Besides, the “Herbicidal activity Ammannia multiflora” value with Ammannia multiflora is 4 (herbicidal effect of not less than 70% by weight and less than 90% by weight). Besides, in the data set on Scirpus juncoides, the “Herbicidal activity Scirpus juncoides” value is 4 (herbicidal effect of not less than 70% by weight and less than 90% by weight). Also, the “Herbicidal activity Oryza sativa” value in [5] is 0 (herbicidal effect of not less than 0% by weight and less than 10% by weight). The “Herbicidal activity Glycine max” value with soybean (Glycine max) [10] is 1 (herbicidal effect of not less than 10% by weight and less than 30% by weight); in the data set with soybean (Glycine max) [12] it was 0 (herbicidal effect of not less than 0% by weight and less than 10% by weight). Besides, the “Herbicidal activity Triticum aestivum” value was 0 (herbicidal effect of not less than 0% by weight and less than 10% by weight) in [11]; 0 (herbicidal effect of not less than 0% by weight and less than 10% by weight) in data set [13]. Moreover, the “Herbicidal activity Echinochloa spp.” value with Echinochloa spp. is 4 (herbicidal effect of not less than 70% by weight and less than 90% by weight).

`COC=C(Cn1nc(-c2ccccc2)c(C)c1Br)C(=O)OC` [Compound 46]: the “Herbicidal activity Setaria viridis” value with Setaria viridis [1] was 4 (herbicidal effect of not less than 70% by weight and less than 90% by weight); with Setaria viridis [6] it was 4 (herbicidal effect of not less than 70% by weight and less than 90% by weight). In addition, the “Herbicidal activity Stellaria media” value in the data set with Stellaria media [2] is 4 (herbicidal effect of not less than 70% by weight and less than 90% by weight); in the data set with Stellaria media [7] it was 5 (herbicidal effect of not less than 90% by weight). In addition, the “Herbicidal activity Chenopodium album” value is 4 (herbicidal effect of not less than 70% by weight and less than 90% by weight) with Chenopodium album [3]; 5 (herbicidal effect of not less than 90% by weight) in the data set with Chenopodium album [8]. Besides, the “Herbicidal activity Digitaria adscendens” value in the data set on Digitaria adscendens [4] was 4 (herbicidal effect of not less than 70% by weight and less than 90% by weight); in the data set on Digitaria adscendens [9] it was 4 (herbicidal effect of not less than 70% by weight and less than 90% by weight). Besides, in the data set on Monochoria vaginalis, the “Herbicidal activity Monochoria vaginalis” value was 3 (herbicidal effect of not less than 50% by weight and less than 70% by weight). Also, the “Herbicidal activity Ammannia multiflora” value with Ammannia multiflora is 3 (herbicidal effect of not less than 50% by weight and less than 70% by weight). For the same compound, the “Herbicidal activity Scirpus juncoides” value in the data set with Scirpus juncoides is 3 (herbicidal effect of not less than 50% by weight and less than 70% by weight). In addition, in data set [5], the “Herbicidal activity Oryza sativa” value was 0 (herbicidal effect of not less than 0% by weight and less than 10% by weight). Also, the “Herbicidal activity Glycine max” value in the data set with soybean (Glycine max) [10] is 1 (herbicidal effect of not less than 10% by weight and less than 30% by weight); in the data set with soybean (Glycine max) [12] it was 0 (herbicidal effect of not less than 0% by weight and less than 10% by weight). For the same compound, the “Herbicidal activity Triticum aestivum” value in [11] is 0 (herbicidal effect of not less than 0% by weight and less than 10% by weight); in data set [13], 0 (herbicidal effect of not less than 0% by weight and less than 10% by weight). Besides, in the data set on Echinochloa spp., the “Herbicidal activity Echinochloa spp.” value is 3 (herbicidal effect of not less than 50% by weight and less than 70% by weight).

(Values after patent US6809065B2, “Herbicide containing substituted pyrazole derivative as active ingredient” (SDS Biotech K.K., priority 2001, dated 2004).)
